According to patent publication US20100298141A1, “SUBSTITUTED PYRIDINE N-OXIDE HERBICIDES” (E. I. DU PONT DE NEMOURS AND COMPANY, priority 2007, published 2010):

Tests used:
blackgrass = assay: Test C pre-/postemergence test; format: in vivo, Alopecurus myosuroides
How it was run: (§1)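 Seeds were planted and treated preemergence with test chemical in a non-phytotoxic solvent mixture containing surfactant. Postemergence applications of the same formulation went onto plants 2 to 18 cm tall (1- to 4-leaf stage). A dash marks no test result.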

Russian thistle = assay: Test C pre-/postemergence test; format: in vivo, Salsola kali
How it was run: as §1

corn = assay: Test C pre-/postemergence test; format: in vivo, Zea mays
How it was run: as §1

woolly cupgrass = assay: Test C pre-/postemergence test; format: in vivo, Eriochloa villosa
How it was run: as §1

bermudagrass = assay: Test F preemergence test; format: in vivo, Cynodon dactylon; details: scale 0 to 100
How it was run: (§2)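 Test chemicals were formulated in a non-phytotoxic solvent mixture with surfactant and applied preemergence to planted seeds or postemergence to sugarcane plants. Plants were kept in a greenhouse for 14 to 21 days, then visually evaluated against controls.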

Surinam grass = assay: Test F preemergence test; format: in vivo, Brachiaria decumbens; details: scale 0 to 100
How it was run: as §2

large crabgrass = assay: Test F preemergence test; format: in vivo, Digitaria sanguinalis; details: scale 0 to 100
How it was run: as §2

goosegrass = assay: Test F preemergence test; format: in vivo, Eleusine indica; details: scale 0 to 100
How it was run: as §2

kochia = assay: Test F preemergence test; format: in vivo, Kochia scoparia; details: scale 0 to 100
How it was run: as §2

purple nutsedge = assay: Test F preemergence test; format: in vivo, Cyperus rotundus; details: scale 0 to 100; for Plant response rating, Purple Nutsedge: Preemergence
How it was run: as §2

common ragweed = assay: Test F preemergence test; format: in vivo, Ambrosia elation; details: scale 0 to 100
How it was run: as §2

mustard = assay: Test F preemergence test; format: in vivo, Brassica nigra; details: scale 0 to 100
How it was run: as §2

barnyardgrass = assay: Test F preemergence test; format: in vivo, Echinochloa crus-galli
How it was run: as §2

southern sandbur = assay: Test F preemergence test; format: in vivo, Cenchrus echinatus; details: scale 0 to 100
How it was run: as §2

Italian ryegrass = assay: Test F preemergence test; format: in vivo, Lolium multiflorum; details: scale 0 to 100
How it was run: as §2

broadleaf signalgrass = assay: Test F preemergence test; format: in vivo, Brachiaria platyphylla; details: scale 0 to 100
How it was run: as §2

quackgrass = assay: Test F preemergence test; format: in vivo, Elytrigia repens; details: scale 0 to 100
How it was run: as §2

[1] = 62 g ai/ha, Preemergence, scale 0 to 100
[2] = 125 g ai/ha, preemergence, scale 0 (no effect) to 100 (complete control)
[3] = Preemergence, 31 g ai/ha, scale 0 to 100 (0 no effect, 100 complete control)
[4] = preemergence, 250 g ai/ha, scale 0 (no effect) to 100 (complete control)

## CC(Oc1c(C[S+]([O-])c2ccc(Cl)c[n+]2[O-])c(C(F)(F)F)nn1C)C(F)(F)F (stereo not shown) [Compound 87]
blackgrass; [1]
  Blackgrass plant response rating: 100
blackgrass; [2]
  Blackgrass plant response rating: 100
blackgrass; [3]
  Plant response rating, Blackgrass: 100
blackgrass; [4]
  Blackgrass plant response rating: 100
Russian thistle; [1]
  Russian Thistle plant response rating: 100
Russian thistle; [2]
  Russian Thistle plant response rating: 100
Russian thistle; [3]
  Plant response rating, Russian Thistle: 100
Russian thistle; [4]
  Russian Thistle plant response rating: 100
corn; [1]
  Corn plant response rating: 95
corn; [2]
  Corn plant response rating: 95
corn; [3]
  Plant response rating, Corn: 85
corn; [4]
  Corn plant response rating: 98
Woolly cupgrass; [1]
  Cupgrass, Woolly plant response rating: 90
Woolly cupgrass; [2]
  Cupgrass, Woolly plant response rating: 98
Woolly cupgrass; [3]
  Plant response rating, Cupgrass, Woolly: 80
Woolly cupgrass; [4]
  Cupgrass, Woolly plant response rating: 100
bermudagrass; 16 g ai/ha, preemergence
  Plant response rating, Bermudagrass: 25
bermudagrass; 125 g ai/ha, preemergence
  Bermudagrass plant response rating: 95
bermudagrass; Preemergence, 62 g ai/ha
  Plant response rating, Bermudagrass: 70
bermudagrass; Preemergence, 31 g ai/ha
  Plant response rating, Bermudagrass: 60
Surinam grass; 16 g ai/ha, preemergence
  Plant response rating, Surinam Grass: 65
Surinam grass; 125 g ai/ha, preemergence
  Surinam Grass plant response rating: 100
Surinam grass; Preemergence, 62 g ai/ha
  Plant response rating, Surinam Grass: 100
Surinam grass; Preemergence, 31 g ai/ha
  Plant response rating, Surinam Grass: 100
Large crabgrass; 16 g ai/ha, preemergence
  Plant response rating, Crabgrass, Large: 30
Large crabgrass; 125 g ai/ha, preemergence
  Crabgrass, Large plant response rating: 100
Large crabgrass; Preemergence, 62 g ai/ha
  Plant response rating, Crabgrass, Large: 95
Large crabgrass; Preemergence, 31 g ai/ha
  Plant response rating, Crabgrass, Large: 65
goosegrass; 16 g ai/ha, preemergence
  Plant response rating, Goosegrass: 70
goosegrass; 125 g ai/ha, preemergence
  Goosegrass plant response rating: 100
goosegrass; Preemergence, 62 g ai/ha
  Plant response rating, Goosegrass: 95
goosegrass; Preemergence, 31 g ai/ha
  Plant response rating, Goosegrass: 80
kochia; 16 g ai/ha, preemergence
  Plant response rating, Kochia: 0
kochia; 125 g ai/ha, preemergence
  Kochia plant response rating: 50
kochia; Preemergence, 62 g ai/ha
  Plant response rating, Kochia: 50
kochia; Preemergence, 31 g ai/ha
  Plant response rating, Kochia: 0
Purple nutsedge; 125 g ai/ha, preemergence
  Purple Nutsedge plant response rating: 80
Purple nutsedge; 62 g ai/ha
  Plant response rating, Purple Nutsedge: 70
Purple nutsedge; 31 g ai/ha
  Plant response rating, Purple Nutsedge: 60
Common ragweed; 16 g ai/ha, preemergence
  Plant response rating, Ragweed: 0
Common ragweed; 125 g ai/ha, preemergence
  Ragweed plant response rating: 90
Common ragweed; Preemergence, 62 g ai/ha
  Plant response rating, Ragweed: 70
Common ragweed; Preemergence, 31 g ai/ha
  Plant response rating, Ragweed: 0
mustard; 16 g ai/ha, preemergence
  Plant response rating, Black Mustard: 0
mustard; 125 g ai/ha, preemergence
  Black Mustard plant response rating: 100
mustard; Preemergence, 62 g ai/ha
  Plant response rating, Black Mustard: 90
mustard; Preemergence, 31 g ai/ha
  Plant response rating, Black Mustard: 30
barnyardgrass; 16 g ai/ha, preemergence, scale 0 to 100 (0 no effect, 100 complete control)
  Plant response rating, Barnyardgrass: 60
barnyardgrass; 125 g ai/ha, preemergence, scale 0 to 100
  Barnyardgrass plant response rating: 100
barnyardgrass; Preemergence, 62 g ai/ha, scale 0 to 100
  Plant response rating, Barnyardgrass: 100
barnyardgrass; Preemergence, 31 g ai/ha, scale 0 to 100
  Plant response rating, Barnyardgrass: 75
Southern sandbur; 16 g ai/ha, preemergence
  Plant response rating, Sandbur: 50
Southern sandbur; 125 g ai/ha, preemergence
  Sandbur plant response rating: 100
Southern sandbur; Preemergence, 62 g ai/ha
  Plant response rating, Sandbur: 100
Southern sandbur; Preemergence, 31 g ai/ha
  Plant response rating, Sandbur: 100
Italian ryegrass; 16 g ai/ha, preemergence
  Plant response rating, Ryegrass, Italian: 100
Italian ryegrass; 125 g ai/ha, preemergence
  Ryegrass, Italian plant response rating: 100
Italian ryegrass; Preemergence, 62 g ai/ha
  Plant response rating, Ryegrass, Italian: 100
Italian ryegrass; Preemergence, 31 g ai/ha
  Plant response rating, Ryegrass, Italian: 100
Broadleaf signalgrass; 16 g ai/ha, preemergence
  Plant response rating, Signalgrass: 0
Broadleaf signalgrass; 125 g ai/ha, preemergence
  Signalgrass plant response rating: 95
Broadleaf signalgrass; Preemergence, 62 g ai/ha
  Plant response rating, Signalgrass: 65
Broadleaf signalgrass; Preemergence, 31 g ai/ha
  Plant response rating, Signalgrass: 15
quackgrass; 16 g ai/ha, preemergence
  Plant response rating, Quackgrass: 60
quackgrass; 125 g ai/ha, preemergence
  Quackgrass plant response rating: 90
quackgrass; Preemergence, 62 g ai/ha
  Plant response rating, Quackgrass: 80
quackgrass; Preemergence, 31 g ai/ha
  Plant response rating, Quackgrass: 60
